We go through 2 compounds from article PMC6496959 (Journal of medicinal chemistry, 2018).

In the assay the test system is A/PR/8/34 (NA-H274Y) (H1N1). The assay is classed as cell-based, influenza A virus. As to conditions: read-out: Antiviral activity (EC50).

The structures appear in SMILES notation. A value given as a limit tells only on which side of the number the result lay.

As usually defined, the EC50 is the concentration at which the effect is half-maximal. As to `NC12CC3CC(CC(C3)C1)C2` [Amantadine, amantadine, reference compound], the EC50 is above 100 µM.
Next, `CCOC(=O)C1=C[C@@H](OC(CC)CC)[C@H](NC(C)=O)[C@@H](N)C1` [Oseltamivir, oseltamivir]: above 10 µM.
